Measurements taken from patent US20220017516A1, “LOX INHIBITORS” (THE INSTITUTE OF CANCER RESEARCH: ROYAL CANCER HOSPITAL, priority 2018, published 2022).

How the values were obtained:
Format in all cases: in vivo, mice
[1] = test system: MMTV-PyMT mammary tumours; experiment: MMTV-PyMT transgenic mouse breast cancer model, primary tumour volume; settings: T/C of average tumour volume; 200 mg/kg po qd; p<0.05
Experimental: (§1) All procedures involving animals were approved by the Animal Welfare and Ethical Review Body of the Institute of Cancer Research and Cancer Research UK Manchester Institute in accordance with National Home Office regulations under the Animals (Scientific Procedures) Act 1986 and according to the guidelines of the Committee of the National Cancer Research Institute Tumour size was determined by caliper measurements of tumour length, width and depth and volume was calculated as volume=0.5236×length×width×depth (mm).
MMTV-PyMT (Guy et al, 1992) (FVB) female mice were randomized by non-statistical methods to LOX inhibitor treatment groups from day 70 post-birth, when animals had no detectable tumour. Mice were treated daily by oral gavage with LOX inhibitor in vehicle, or daily vehicle (5% DMSO/2.5% Tween20 in water) by oral gavage. Tumour size was determined unblinded by caliper measurements of tumour length, width and depth and volume was calculated as 0.5236×length×width×depth (mm). […]
(§2) For therapeutic efficacy assessment, the ratio of average tumour volume between compound treated and vehicle control treated (T/C) is calculated. […] The efficacy of LOX inhibitors described in this invention, as measured by T/C in breast cancer models is shown in Table 4 and is significant (p<0.05) for all the data presented.

[2] = test system: MMTV-PyMT lung metastases; experiment: MMTV-PyMT transgenic mouse breast cancer model, lung metastases quantification; settings: T/C of average lung metastases number; 200 mg/kg po qd; p<0.05
Experimental: MMTV-PyMT (Guy et al, 1992) (FVB) female mice were randomized by non-statistical methods to LOX inhibitor treatment groups from day 70 post-birth, when animals had no detectable tumour. Mice were treated daily by oral gavage with LOX inhibitor in vehicle, or daily vehicle (5% DMSO/2.5% Tween20 in water) by oral gavage. Tumour size was determined unblinded by caliper measurements of tumour length, width and depth and volume was calculated as 0.5236×length×width×depth (mm). In all experiments, mice were humanely killed and mammary tumours and lungs were collected when the primary tumours reached ethical limits or signs of ill health.
For lung metastases quantification, all mouse tissue samples were fixed in 10% formalin (Sigma) and embedded in paraffin. Samples were sectioned and hematoxylin and eosin (H&E) stained. Samples were imaged with a Leica SCN400 slide scanner. […] Lung metastases number was counted and area was measured using ImageScope. […] The ratio of average metastases surface between compound treated and vehicle control treated (T/C) is calculated. The ratio of average metastases numbers between compound treated and vehicle control treated (T/C) is also calculated. […] The antimetastatic efficacy of LOX inhibitors described in this invention, as measured by T/C in a model of breast cancer metastasising to lungs is shown in Table 4 and is significant (p<0.05) for all the data presented.

[3] = test system: MDA-MB-231 human breast adenocarcinoma; experiment: MDA-MB-231 xenografts, primary tumour volume; settings: T/C of average tumour volume; 200 mg/kg po qd; p<0.05
Experimental: as §1
MDA-MB-231 xenografts. […] Tumours and weights are measured twice weekly using calipers and the animals can be imaged using non invasive method by bioluminescence using IVIS 200 imaging machine, weekly using 150 mg/kg luciferin administrate intraperitoneal or subcutaneous. […] Frozen samples kept at −80 degree centigrade until being analyzed and the fixed samples stained according to desired marker.
as §2

CCOc1ccc(N2C[C@@H]3C[C@H]2CN3C(=O)CS(=O)(=O)CCN)cc1 [drawing 226]
MMT-PyMT breast transgenic model - primary tumour (T/C) [1]: 0.6
MMT-PyMT breast transgenic model - metastases a) Count (T/C) [2]: a) 0.14
MDA-MB-231 human breast adenocarcinoma - primary tumour (T/C) [3]: 0.54
